Values quoted from earlier work in US5817628A, “Dynorphin a suppression of natural killer cell activity” (The Rockefeller University, priority 1992, dated 1998).

Tested on: NK cells
Settings: reported by other investigators

| Molecule | effect on NK activity in vitro (literature) |
| --- | --- |
| β-endorphin (YGGFMTSEKSQTPLVTLFKNAIIKNAYKKGE; Beta-endorphin; UniProt P01189 237-267, looked up) [endogenous opioid] | increases NK cell activity in vitro |
| CCC(=O)C(CC(C)N(C)C)(c1ccccc1)c1ccccc1 (stereo not shown) [methadone] | observed in vitro only at methadone concentrations many orders of magnitude higher than those observed during any clinical use of methadone |
| CN1CC[C@]23c4c5ccc(O)c4O[C@H]2[C@@H](O)C=C[C@H]3[C@H]1C5 [Morphine] | enhanced NK activity in one study |
| Met-enkephalin | appears to enhance NK activity |
